Assay results published in publication PMC10778980, “Profiling Novel Quinuclidine-Based Derivatives as Potential Anticholinesterase Drugs: Enzyme Inhibition and Effects on Cell Viability” (International Journal of Molecular Sciences, 2023).
“Also recorded” adds a separate entry of the source. Where two headings read alike, the source gives them in different places.

Assays:
human BChE = target: T1, human BChE (Homo sapiens, UniProt P06276); assay: biochemical; settings: Ki ± standard error; 0.1, 0.2, 0.35 and 0.5 mM substrate ATCh; 25 °C, pH 7.4; read-out: Ki BChE
T1 construct: Plasma was removed and used as a source of BChE; from tissue; host or cells: human blood plasma from a healthy volunteer
Excerpt: (§1) Cholinesterase substrate acetylthiocholine (ATCh) and the thiol reagent 5,5′-dithiobis(2-nitrobenzoic acid) (DTNB) for the enzyme activity measurement were purchased from Sigma-Aldrich (St. Louis, MO, USA). The sources of human AChE and BChE were native erythrocytes and plasma, respectively, obtained from the blood of a healthy volunteer and in accordance with the approval of the Ethics Committee of the Institute for Medical Research and Occupational Health (approval number: 100-21/23-6). Erythrocytes and plasma were isolated from the whole blood and prepared according to a previously published procedure. Namely, venous blood was collected into a heparinized tube and centrifuged (at 4 °C, 20 min on 2500 rpm, Eppendorf centrifuge 5702R) to separate plasma from the erythrocytes. Plasma was removed and used as a source of BChE, while erythrocytes were washed twice with the 0.1 M sodium phosphate buffer, pH 7.4, in a volume corresponding to the initial volume of the whole blood. Both plasma and erythrocytes were frozen at −20 °C until use. Quinuclidine compounds were dissolved in dH2O as 10 or 100 mM; exceptionally, 3-hydroxyimino compounds with longer chains (C12−C16) were dissolved in DMSO as 100 mM solutions. Stock solutions were kept at 4 °C until use. Further dilutions were made in distilled water.
(§2) The reversible inhibition experiments followed a previously published procedure. Namely, the enzyme activity was measured in the presence of a wide range of quinuclidine compound concentrations and in the substrate range from 0.1 to 0.5 mM to confirm the type of compound binding. The activity was assayed following the Ellman’s procedure, with the modification in the wavelength used for detection of the TNB anion in the case of AChE activity measurement due to the interference of the hemoglobin, and according to Worek et al.. The assay was performed in 96-well plates on an Infinite M200PRO plate reader (Tecan Austria GmbH, Salzburg, Austria) at 25 °C. Each concentration was tested in triplicate or quadruplicate on each plate. The inhibition mixture contained 0.1 M sodium phosphate buffer, pH 7.4, enzyme (AChE or BChE), quinuclidine compound (0.2–400 μM final), DTNB (0.3 mM final), and ATCh (from 0.1 to 0.5 mM final) to start the reaction. The increase in absorbance was read at 436 nm for AChE and at 412 nm for BChE. The measured activity in the presence of compounds was corrected for the non-enzymatic hydrolysis of substrate ATCh, if detected. The reversible enzyme–quinuclidine complex dissociation constants (the inhibition constants) Ki were evaluated from the effect of the substrate concentration on the degree of inhibition according to the Hunter–Downs equation as described previously, taking into account only quinuclidine concentrations where 20–80% inhibition of the activity was observed.

HepG2 cells [1] = assay: Cytotoxicity assay (MTS) on HepG2; type: cell-based; settings: Homo sapiens
Procedure: (§3) SH-SY5Y cells were grown in DMEM F12 (Sigma-Aldrich, St. Louis, MO, USA) supplemented with 15% (v/v) fetal bovine serum (FBS), 2 mM glutamine, and 1% (v/v) non-essential amino acids (NEAA). HepG2 cells were grown in EMEM supplemented with 10% (v/v) FBS, 2 mM glutamine, and 1% (v/v) non-essential amino acids NEAA. All media and supplements were purchased from Sigma-Aldrich, Steinheim, Germany.
(§4) The procedure followed a previously described protocol.

human AChE = target: T2, human AChE (Homo sapiens, UniProt P22303); assay: Reversible inhibition of AChE (Ellman's procedure, Hunter–Downs evaluation); type: biochemical; settings: for Ki: Ki ± standard error, 0.1, 0.2, 0.35 and 0.5 mM substrate ATCh, 25 °C, pH 7.4; for Ki (AChE)/Ki (BChE): selectivity ratio
T2 construct: The sources of human AChE and BChE were native erythrocytes and plasma, respectively; from tissue; host or cells: human erythrocytes from venous blood of a healthy volunteer
Excerpt: as §1, §2

SH-SY5Y cells [2] = assay: Cytotoxicity assay (MTS) on SH-SY5Y; type: cell-based; settings: Homo sapiens
Procedure: as §3, §4

SH-SY5Y cells [3] = assay: Cell membrane integrity (LDH release) on SH-SY5Y; type: cell-based, human; settings: 4 h exposure, 12.5–200 µM
Procedure: (§5) Human neuroblastoma SH-SY5Y (ECACC 94030304) and human hepatocyte carcinoma HepG2 (ECACC 85011430) were used to evaluate in vitro dose- and time-dependent different cell effects. The SH-SY5Y cell line was selected as it represents a well-established model for studying neuronal cells, while HepG2 hepatocytes represent a liver model as a major organ participating in the metabolism of diverse compounds [31, 61, 62]. SH-SY5Y cells were grown in DMEM F12 (Sigma-Aldrich, St. Louis, MO, USA) supplemented with 15% (v/v) fetal bovine serum (FBS), 2 mM glutamine, and 1% (v/v) non-essential amino acids (NEAA). HepG2 cells were grown in EMEM supplemented with 10% (v/v) FBS, 2 mM glutamine, and 1% (v/v) non-essential amino acids NEAA. All media and supplements were purchased from Sigma-Aldrich, Steinheim, Germany.
(§6) Cell membrane integrity was determined after 4 h exposure to derivatives 3–5 and 10–12 by measuring the release of the intracellular lactate dehydrogenase (LDH), and the procedure followed a previously described protocol using The CytoTox-ONE™ Homogeneous Membrane Integrity Assay (Promega, Madison, WI, USA). Triton X-100 at a final concentration of 0.18% (v/v) (stock of 9% in water; Sigma-Aldrich, Steinheim, Germany) was used as a positive control to determine the maximal LDH release. Data were taken from at least two independent experiments (each treatment performed in duplicate) and plotted as a percentage of LDH release compared to the determined maximal LDH release, according to the manufacturer’s calculation protocol.

HepG2 cells [4] = assay: Mitochondrial membrane potential (TMRE assay) on HepG2; type: cell-based, human; settings: HepG2, 4 h exposure, LOAEL concentrations
Procedure: as §5
(§7) Mitochondrial membrane potential (ΔΨm) was determined using a cell-permeable, potential-sensitive cationic dye, tetramethylrhodamine ethyl ester perchlorate (TMRE, Cell Signaling Technology Europe, Leiden, The Netherlands). Cells were exposed for 4 h to derivatives 3–5 and 10–12. The procedure followed a previously described protocol. A concentration of 50 µM carbonyl cyanide 3-chlorophenylhydrazone (CCCP, Cell Signaling Technology Europe, Leiden, The Netherlands) was used as a positive control. Data were evaluated from at least three independent experiments (performed in duplicate) and presented as a normalized signal to the untreated control, according to the manufacturer’s calculation protocol.

HepG2 cells [5] = assay: Cell membrane integrity (LDH release) on HepG2; type: cell-based, human; settings: HepG2, 4 h exposure, 12.5–200 µM
Procedure: as §5, §6

SH-SY5Y cells [6] = assay: Mitochondrial membrane potential (TMRE assay) on SH-SY5Y; type: cell-based, human; settings: 4 h exposure, LOAEL concentrations
Procedure: as §5, §7

[7] = HepG2, read-out: IC50 ± SE HepG2 1 h, 1 h exposure
[8] = HepG2, 4 h exposure, read-out: IC50 ± SE HepG2 4 h
[9] = HepG2, 24 h exposure, read-out: IC50 ± SE HepG2 24 h
[10] = 4 h exposure, read-out: IC50 ± SE SH-SY5Y 4 h
[11] = 24 h exposure, read-out: IC50 ± SE SH-SY5Y 24 h
[12] = read-out: IC50 ± SE SH-SY5Y 1 h, 1 h exposure

T2 sequence (P22303 32-617 isoform P22303-2 limits assumed): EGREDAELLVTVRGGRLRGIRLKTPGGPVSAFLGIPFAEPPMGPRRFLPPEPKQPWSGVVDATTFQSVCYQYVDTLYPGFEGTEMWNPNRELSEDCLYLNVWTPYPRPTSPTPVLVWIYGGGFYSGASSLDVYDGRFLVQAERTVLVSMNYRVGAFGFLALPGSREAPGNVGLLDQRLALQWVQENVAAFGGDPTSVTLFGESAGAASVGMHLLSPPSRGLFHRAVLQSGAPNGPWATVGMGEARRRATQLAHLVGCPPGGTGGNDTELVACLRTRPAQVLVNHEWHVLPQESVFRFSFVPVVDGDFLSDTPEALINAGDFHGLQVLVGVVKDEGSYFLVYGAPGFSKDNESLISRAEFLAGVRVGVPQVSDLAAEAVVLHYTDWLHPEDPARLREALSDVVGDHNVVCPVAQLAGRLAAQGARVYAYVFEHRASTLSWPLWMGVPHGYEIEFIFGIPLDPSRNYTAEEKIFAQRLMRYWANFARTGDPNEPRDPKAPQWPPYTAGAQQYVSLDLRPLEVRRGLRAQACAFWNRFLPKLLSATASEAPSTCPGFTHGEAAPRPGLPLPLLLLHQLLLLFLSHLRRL
T1 sequence (P06276 29-602): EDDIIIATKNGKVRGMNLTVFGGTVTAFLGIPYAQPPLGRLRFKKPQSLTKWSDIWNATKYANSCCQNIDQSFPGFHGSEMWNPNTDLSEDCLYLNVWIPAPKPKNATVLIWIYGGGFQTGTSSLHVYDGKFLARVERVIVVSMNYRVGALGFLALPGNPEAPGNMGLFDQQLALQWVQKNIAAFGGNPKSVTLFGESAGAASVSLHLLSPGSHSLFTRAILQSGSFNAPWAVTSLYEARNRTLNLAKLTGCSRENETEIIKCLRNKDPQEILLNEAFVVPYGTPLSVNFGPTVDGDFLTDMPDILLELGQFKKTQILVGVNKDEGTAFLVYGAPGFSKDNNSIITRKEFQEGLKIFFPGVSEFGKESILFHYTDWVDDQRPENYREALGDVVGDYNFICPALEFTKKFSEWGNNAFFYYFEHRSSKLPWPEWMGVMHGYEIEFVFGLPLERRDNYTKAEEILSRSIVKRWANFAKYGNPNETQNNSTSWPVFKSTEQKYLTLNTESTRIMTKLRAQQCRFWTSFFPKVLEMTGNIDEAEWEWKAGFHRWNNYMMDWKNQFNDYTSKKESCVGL

| Structure (SMILES) | Ki (human BChE) [µM] | IC50 (HepG2 cells [1]; [7]) [µM] | IC50 (HepG2 cells [1]; [8]) [µM] | IC50 (HepG2 cells [1]; [9]) [µM] | Ki (human AChE) [µM] | Ki (AChE)/Ki (BChE) (human AChE) | IC50 (SH-SY5Y cells [2]; [10]) [µM] | IC50 (SH-SY5Y cells [2]; [11]) [µM] | IC50 (SH-SY5Y cells [2]; [12]) [µM] | LDH release (SH-SY5Y cells [3]) | Mitochondrial membrane potential (ΔΨm) (HepG2 cells [4]) | LDH release (HepG2 cells [5]) | Mitochondrial membrane potential (ΔΨm) (SH-SY5Y cells [6]) |
| --- | --- | --- | --- | --- | --- | --- | --- | --- | --- | --- | --- | --- | --- |
| CCCCCCCC[N+]12CCC(CC1)C(O)C2 (stereo not drawn) [Compound 1] | 85.1 ± 22.1 | ≥ 800 | ≥ 800 | ≥ 800 | 156 ± 26.1 | 1.8 | ≥ 800 | ≥ 800 | ≥ 800 | – | – | – | – |
| CCCCCCCCCC[N+]12CCC(CC1)C(O)C2 (stereo not drawn) [Compound 2] | 11.8 ± 1.1 | ≥ 800 | ≥ 800 | ≥ 537 | 63.8 ± 5.1 | 5.4 | ≥ 800 | ≥ 800 | ≥ 800 | – | – | – | – |
| CCCCCCCCCCCC[N+]12CCC(CC1)C(O)C2 (stereo not drawn) [Compound 3] | 9 ± 0.8 | 135 ± 1 | 81 ± 1 | 66 ± 1 | 13.2 ± 0.6 | 1.5 | 74 ± 1 | 56 ± 1 | 145 ± 1 | significant LDH release | decrease in the mitochondrial membrane potential | strongest effect; also recorded: significant LDH release | decrease in the mitochondrial membrane potential |
| CCCCCCCCCCCCCC[N+]12CCC(CC1)C(O)C2 (stereo not drawn) [Compound 4] | 7.9 ± 0.7 | 35 ± 1 | 32 ± 1 | 43 ± 1 | 4.2 ± 0.5 | 0.5 | 9 ± 1 | 7 ± 1 | 16 ± 1 | significant LDH release | decrease in the mitochondrial membrane potential | strongest effect; also recorded: significant LDH release | decrease in the mitochondrial membrane potential |
| CCCCCCCCCCCCCCCC[N+]12CCC(CC1)C(O)C2 (stereo not drawn) [Compound 5] | 26.1 ± 2.4 | 46 ± 1 | 26 ± 1 | 28 ± 1 | 9 ± 1.3 | 0.3 | 8 ± 1 | 7 ± 1 | 11 ± 1 | significant LDH release | strongest effect; also recorded: decrease in the mitochondrial membrane potential | strongest effect; also recorded: significant LDH release | decrease in the mitochondrial membrane potential |
